Measurements: patent US20230331707A1, “PROGRAMMED CELL NECROSIS INHIBITOR, PREPARATION METHOD THEREFOR, AND USE THEREOF” (Shanghai Institute of Organic Chemistry, Chinese Academy of …, priority 2020, published 2023)
Read-outs that look alike come from different tables or passages of the source.

How the values were obtained:
FADD−/− Jurkat cells = test: Inhibition of TNF-induced programmed necrosis of FADD deficient Jurkat cells (Cell Titer-Glo viability); assay type: cell-based
Source text: (§1) The adopted biological assay protocol was: the effect of compounds on programmed necroptosis of TNF-induced FADD (Fas-Associated Death Domain) deficient Jurkat cells and L929 cells.
(§2) In order to verify the inhibitory effect of the compounds of the present invention on programmed cell necrosis at the cellular level, cell types that is closely related to the RIP1 pathway, namely FADD deficient Jurkat cells (human peripheral blood leukemia T cell strain) and L929 cells, were selected. Two different stimulation methods were used: tumor necrosis factor (TNFα) was used alone, or TNFα was used in combination with mitochondria-derived cysteine aspartate activator (SMAC) SM164. Cells viability was calculated by detecting chemiluminescence values, thereby obtaining the biological activity of the compound on the inhibition of programmed cell necrosis.
(§3) Methods: FADD deficient Jurkat cells: FADD deficient Jurkat cells (human peripheral blood leukemia T cell line) were cultured in vitro. After growing to the logarithmic growth phase, the cells were collected, centrifuged at 1000 rpm for 5 min, the supernatant was discarded, and the cell concentration was adjusted to 2.5×10^5/mL. Cells were seeded into 384-well plates, 40 μl per well. 5 μL of SM164 (50 nM) diluted in cell culture medium and 5 μL of each compound were added to the corresponding wells. After pretreatment at 37° C. for 1 h, 5 μL of TNFα (50 ng/mL) diluted in cell culture medium was added to each well of the stimulation group, and 5 μL of the culture medium was added to the control group. The plate was cultured in a cell incubator (37° C., 5% CO2) for 14 h, and […] of Cell Titer-Glo solution was added to each well, then incubated for 30 min at room temperature, and intracellular ATP level was measured by detecting luminescence. The unstimulated DMSO control wells were taken as 100% cell viability. L929 cells: The L929 cells (mouse fibroblasts) were cultured in vitro, digested and diluted to 6.25×10^4/ml, and the cells were seeded into 384-well plates, 40 μl per well. The plate was placed in a cell incubator (37° C., 5% CO2) for 12 hours. 5 μL of SM164 (500 nM) diluted in cell culture medium and 5 μL of each compound were added to the corresponding wells. After pretreatment at 37° C. for 1 h, 5 μL of TNFα (500 ng/mL) diluted in cell culture medium was added to each well of the stimulation group, and 5 μL of the culture medium was added to the control group. After the plate was cultured for 14 h in a cell incubator (37° C., 5% CO2), 15 μl of Cell Titer-Glo solution was added to each well. The plate was incubated at room temperature for 30 min, and intracellular ATP level was measured by detecting luminescence. The unstimulated DMSO control wells were taken as 100% cell viability. EC50 values of the compounds were calculated using Prism Graphpad statistical software.

L929 cells = test: Inhibition of TNF-induced programmed necrosis of L929 cells (Cell Titer-Glo viability); assay type: cell-based, mouse
Source text: as §1, §2, §3

[1] = Homo sapiens, Jurkat, 14 h, FADD−/− Jurkat cells, stimulated with TNFα + SM164, read-out: EC50 (μM) FADD−/− Jurkat cells (human) TNFα + SM164
[2] = Homo sapiens, Jurkat, FADD−/− Jurkat cells, stimulated with TNFα alone, read-out: EC50 (μM) FADD−/− Jurkat cells (human) TNFα
[3] = Mus musculus, L929, L929 cells, stimulated with TNFα + SM164, read-out: EC50 (μM) L929 cells (mouse) TNFα + SM164
[4] = Mus musculus, L929, L929 cells, stimulated with TNFα alone, read-out: EC50 (μM) L929 cells (mouse) TNFα
[5] = FADD−/− Jurkat cells, stimulated with TNFα + SM164, read-out: EC50 (μM) FADD−/− Jurkat cells (human) TNFα + SM164
[6] = FADD−/− Jurkat cells, stimulated with TNFα alone, read-out: EC50 (μM) FADD−/− Jurkat cells (human) TNFα

Structure (SMILES)	EC50 (FADD−/− Jurkat cells; [1]) [nM]	EC50 (FADD−/− Jurkat cells; [2]) [nM]	EC50 (L929 cells; [3]) [nM]	EC50 (L929 cells; [4]) [nM]	further results
COc1cnc2c(c1)ncn2-c1ccc(CNC(=O)c2nnn(C)c2Cc2ccccc2)cc1 [ET-0934]	15.5	0.489	558	16.6	
COc1ccc2ncn(-c3ccc(CNC(=O)c4nnn(C)c4Cc4ccccc4)cc3)c2n1 [ET-0935]	0.244	0.0235	0.001	0.001	activity of inhibition of programmed necrosis compared with GSK2982772 (FADD−/− Jurkat cells; human FADD-deficient Jurkat cells, TNFα alone or in combination with SM164): stronger activity
CNC(=O)c1ccc2c(c1)ncn2-c1ccc(CC(=O)NCc2c[nH]c3ccccc23)cc1 [QY-5-35, 1-(4-(2-(((1H-indole-3-yl)methyl)amino)-2-oxoethyl)phenyl)-N-methyl-1H-benzo[d]imidazol-5-formamide]	> 10000	2490	> 10000	> 10000	
CNC(=O)c1ccc2c(c1)ncn2-c1ccc(CC(=O)N(C)Cc2cc(F)cc(F)c2F)cc1 [QY-5-40, N-methyl-1-(4-(2-(methyl(2,3,5-trifluorobenzyl)amino)-2-oxoethyl)phenyl)-1H-benzo[d]imidazol-5-formamide]	> 10000	2500	> 10000	5000	
CNC(=O)c1ccc2c(c1)ncn2-c1ccc(CC(=O)N(O)Cc2ccccc2)cc1 [QY-5-62, 1-(4-(2-(benzyl(hydroxy)amino)-2-oxoethyl)phenyl)-N-methyl-1H-benzo[d]imidazol-5-formamide]			> 10000	3800	EC50 (FADD−/− Jurkat cells; Homo sapiens, Jurkat, 14 h, read-out: EC50 (μM) FADD−/− Jurkat cells (human) TNFα + SM164): 98 nM; EC50 (FADD−/− Jurkat cells; Homo sapiens, Jurkat, read-out: EC50 (μM) FADD−/− Jurkat cells (human) TNFα): 4.98 nM
CNC(=O)c1ccc2c(c1)ncn2-c1ccc(NC(=O)c2nocc2Cc2ccccc2)cc1 [QY-6-15]	> 10000	1370	> 10000	> 10000	
CNC(=O)c1ccc2c(c1)ncn2-c1ccc(CNC(=O)c2cc(Cc3ccccc3)n(C)n2)cc1 [QY-7-2B, 1-(4-((5-benzyl-1-methyl-1H-pyrazole-3-carboxamido)methyl)phenyl)-N-methyl-1H-benzo[d]imidazol-5-carboxamide]	43.9	5.12	2020	312	
CNC(=O)c1ccc2c(c1)ncn2-c1ccc(CNC(=O)c2nnc(Cc3ccccc3)o2)cc1 [QY-7-32, 5-Benzyl-N-(4-(5-(methylcarbamoyl)-1H-benzo[d]imidazol-1-yl)benzyl)-1,3,4-oxadiazol-2-carboxamide]	1520	185	> 10000	> 10000	
CNC(=O)c1ccc2c(c1)ncn2-c1ccc(CC(=O)N2CCCC2c2ccccc2)cc1 (stereo not drawn) [QY-7-65, N-methyl-1-(4-(2-oxo-2-(2-phenylpyrrolidin-1-yl)ethyl)phenyl)-1H-benzo[d]imidazol-5-carboxamide]	> 10000	> 10000	> 10000	> 10000	
Nc1ncnc2c1ccn2-c1ccc(CNC(=O)c2ncc(Cc3ccccc3)o2)cc1 [QY-8-30, N-(4-(4-amino-7H-pyrrolo[2,3-d]pyrimidine-7-yl)benzyl)-5-benzyloxazol-2-carboxamide]	13	11.2	6300	829	
Cn1nc(C(=O)NCc2ccc(-n3cnc4c(N)ncnc43)cc2)cc1Cc1ccccc1 [QY-8-31]					EC50 (FADD−/− Jurkat cells; [5]): 7400 nM; EC50 (FADD−/− Jurkat cells; [6]): 1300 nM; EC50 (L929 cells; L929 cells, stimulated with TNFα + SM164, read-out: EC50 (μM) L929 cells (mouse) TNFα + SM164): > 10000 nM; EC50 (L929 cells; L929 cells, stimulated with TNFα alone, read-out: EC50 (μM) L929 cells (mouse) TNFα): > 10000 nM
CNC(=O)c1ccc2c(c1)ncn2-c1ccc(CC(=O)NC(C)(C)C(=O)N2CCCC2c2ccc(C)cc2)cc1 (stereo not drawn) [QY-8-42]	> 10000	> 10000	> 10000	> 10000	
Nc1ncnc2c1ccn2-c1ccc(CNC(=O)c2cc(Cc3ccccc3)on2)cc1 [QY-8-48]	> 10000	972	> 10000	> 10000	
Nc1ncnc2c1ccn2-c1ccc(CNC(=O)c2nnn(Cc3ccccc3)n2)cc1 [QY-8-58, N-(4-(4-amino-7H-pyrrolo[2,3-d]pyrimidin-7-yl)benzyl)-2-benzyl-2H-tetrazol-5-carboxamide]	577	196	> 10000	> 10000	
Nc1ncnc2c1ccn2-c1ccc(CNC(=O)c2n[nH]c(Cc3ccccc3)n2)cc1 [QY-8-60, N-(4-(4-amino-7H-pyrrolo[2,3-d]pyrimidine-7-yl)benzyl)-5-benzyl-1H-1,2,4-triazol-3-carboxamide]	> 10000	> 10000	> 10000	> 10000	
Nc1ncnc2c1ccn2-c1ccc(CNC(=O)Cc2cccc(OC(F)(F)F)c2)cc1 [QY-9-69, O—N-(4-(4-amino-7H-pyrrolo[2,3-d]pyrimidine-7-yl)benzyl)-2-(3-(trifluoromethoxy)phenyl)acetamide]	> 10000	> 10000	> 10000	567	
Nc1ncnc2c1ncn2-c1ccc(CNC(=O)Cc2cccc(OC(F)(F)F)c2)cc1 [QY-9-70]	> 10000	2960	6300	350	
Nc1ncnc2c1ncn2-c1ccc(CNC(=O)c2n[nH]c3ncc(C(F)(F)C(F)(F)F)cc23)cc1 [QY-9-77, N-(4-(6-amino-9H-purin-9-yl)benzyl)-5-(perfluoroethyl)-1H-pyrazolo[3,4-b]pyridine-3-carboxamide]	171	9.04	5000	344	
Cn1nc(C(=O)NCc2ccc(-n3ccc4c(N)ncnc43)cc2)cc1Cc1ccccc1 [QY-10-21, N-(4-(4-amino-7H-pyrrolo[2,3-d]pyrimidin-7-yl)benzyl)-5-benzyl-1-methyl-1H-pyrazol-3-carboxamide]	299	49	> 10000	> 10000	
CCn1ncc(C(=O)NCc2ccc(-n3cnc4c(N)ncnc43)cc2)c1Cc1ccccc1 [QY-10-65]	34.6	1.2	73.8	22.1	
CNC(=O)c1ccc2c(c1)ncn2-c1ccc(CNC(=O)c2cnn(C)c2Cc2ccccc2)cc1 [QY-10-73]	5.2	0.0697	76.7	20	
Cn1ncc(C(=O)NCc2ccc(-n3cnc4ccc(C(=O)NCCN5CCOCC5)cc43)cc2)c1Cc1ccccc1 [QY-11-68A]	3.79	0.581	1.58	161	
CN1CCN(CCNC(=O)c2ccc3ncn(-c4ccc(CNC(=O)c5cnn(C)c5Cc5ccccc5)cc4)c3c2)CC1 [QY-11-69A]	194	3	> 10000	> 10000	
CN(C)CCNC(=O)c1ccc2ncn(-c3ccc(CNC(=O)c4cnn(C)c4Cc4ccccc4)cc3)c2c1 [QY-11-74A]	368	53	> 10000	> 10000	
CNC(=O)c1ccc2c(cnn2-c2ccc(CNC(=O)c3cnn(C)c3Cc3ccccc3)cc2)c1 [QY-11-104]	48.4	4.43			
COc1ccc2c(c1)ncn2-c1ccc(CNC(=O)c2cnn(C)c2Cc2ccccc2)cc1 [QY-12-4]					EC50 (FADD−/− Jurkat cells; [5]): 128 nM; EC50 (FADD−/− Jurkat cells; [6]): 17.6 nM
C[C@H](NC(=O)c1nnn(C)c1Cc1ccccc1)c1ccc(-n2cnc3c(N)ncnc32)cc1 [QY-13-50]	0.001	0.001			
Nc1ncnc2c1ncn2-c1ccc(CNC(=O)c2cncn2Cc2ccccc2)cc1 [ZSQ-21-14]	> 10000	290			
